Data published in ChEMBL document CHEMBL4616680, “Shedding X-ray Light on the Role of Magnesium in the Activity of Mycobacterium tuberculosis Salicylate Synthase (MbtI) for Drug Design” (J Med Chem, 2020).
Calls of active or inactive are those of the source. The rule behind the calls is not given here.

Experiments:
[1] = test system: Mycobacterium tuberculosis; test: Inhibition of siderophore production in Mycobacterium bovis BCG at 250 to 1000 mM incubated for 15 days by universal CAS assay; assay type: functional, organism-based; conditions: variant bovis BCG
[2] = test system: Mycobacterium tuberculosis; test: Inhibition of myco-bactins production in Mycobacterium bovis BCG at 250 to 1000 mM by universal CAS assay; assay type: functional, organism-based; conditions: variant bovis BCG

How did the inhibition [1] turn out when `N#Cc1cccc(-c2ccc(C(=O)O)o2)c1` was run?
Its inhibition is “Active”.

What about the inhibition [2] of the same compound?
Its inhibition is “Active”.
